Our source for the EC50 values is patent publication US11820773B2, “Tricyclic compounds” (ALIGOS THERAPEUTICS, INC., priority 2020, dated 2023).

The test has as its system HBV. Description: HBV-DNA antiviral assay using HepG2.117 cells (intracellular HBV DNA by qPCR). As to conditions: Hepatitis B virus, 72 h, HBV DNA inhibition, 3 days incubation, 2% DMSO. The format is cell-based, genotype D HBV. How it is done: The following assay procedure describes the HBV antiviral assay, using HepG2.117 cells, which carry a stably integrated genotype D HBV genome under the control of a Tet-off promoter, and intracellular HBV DNA quantification as endpoint. Cell viability is assessed in parallel by measuring the intracellular ATP content using CellTiter-Glo 2.0 (Promega).
On day 0, HepG2.117 cells (which are maintained in routine cell culture with doxycycline present in the medium at a final concentration of 1 μg/mL) were seeded in 96-well plates (white with clear bottom) at a density of 2.0×10^4 cells/well (0.1 mL/well) in medium without doxycycline to induce pgRNA transcription and subsequent formation of HBV particles. The cells were incubated at 37° C. and 5% CO2.
On day 1, medium was removed from each well, the test articles were diluted in culture medium without doxcycyline and 100 μL was added to cell culture wells (9 concentrations, 4-fold dilution). For each plate, 6 untreated (merely DMSO) wells were included. The final concentration of DMSO in the culture medium was 2%. Each plate was prepared in duplicate (one for HBV DNA extraction, one for CellTiter-Glo 2.0 measurement). The cells were incubated at 37° C. and 5% CO2 for 3 days.
On day 4, cell viability was assessed using CellTiter-Glo 2.0 and cell lysates were prepared for HBV DNA extraction and subsequent quantification by qPCR.
HBV DNA Quantification by qPCR
Medium was removed from each well and 100 μL of 0.33% NP-40 in H2O was added to each well. Plates were sealed, incubated at 4° C. for 5 mins, vortexed extensively and centrifuged briefly. Next, 35 μL of lysate was added to 65 μL QuickExtract DNA Extraction Solution (Epicentre) in a PCR plate for each well. PCR plate was incubated at 65° C. for 6 mins, 98° C. for 2 mins and finally cooled to 4° C. HBV DNA was then quantified by qPCR with HBV-specific primers and probes as specified in Table 1 using the Bio-Rad SSOAdvanced Universal Probes Supermix on a CFX96 machine (Bio-Rad). The PCR cycle program consisted of 95° C. for 3 mins, followed by 40 cycles at 95° C. for 10 sec and 60° C. for 30 sec.
A DNA standard was prepared by dilution of an IDT gBlock corresponding to the amplicon with concentrations ranging from 10^2 to 10^8 copies/input (i.e. per 4 μL) and used to generate a standard curve by plotting Cq values vs. HBV DNA standard concentration. The quantity of HBV DNA in each sample was determined by interpolating from the standard curve.
Cell viability was calculated as follows: % Cell viability=(luminescence value of test sample)/(average luminescence value of 2% DMSO control)×100%. HBV DNA inhibition was calculated as follows: 100−(HBV DNA copy number of test sample)/(average HBV DNA copy number of 2% DMSO control)×100%. No normalization to entecavir was required due to the excellent dynamic window of this assay. The CC50, EC50 and EC90 values were determined by dose-response curves fitted by GraphPad Prism using “log (agonist) vs. response—Variable slope”.

`CNc1n[nH]c2cc(-n3c(=O)c4c(n5ncc(CC(C)C)c35)CN(C(=O)c3ccc(Br)c(C(F)(F)F)c3)[C@H](C)C4)ccc12` (stereo in doubt) [Compound 61a, rac-(11R)-12-[4-bromo-3-(trifluoromethyl)benzoyl]-5-isobutyl-11-methyl-7-[3-(methylamino)-1H-indazol-6-yl]-2,3,7,12-tetrazatricyclo[7.4.0.0^2,6]trideca-1(9),3,5-trien-8-one] had an EC50 below 50 nM.

As for `C[C@@H]1Cc2c(n3ncc(Cc4ccccc4)c3n(-c3ccc(-c4cnnn4C)cc3)c2=O)CN1C(=O)c1ccc(Br)c(C(F)(F)F)c1` (stereo in doubt) [Compound 105a, rac-(11R)-5-benzyl-12-[4-bromo-3-(trifluoromethyl)benzoyl]-11-methyl-7-[4-(3-methyltriazol-4-yl)phenyl]-2,3,7,12-tetrazatricyclo[7.4.0.0^2,6]trideca-1(9),3,5-trien-8-one], the EC50 is below 50 nM.

For `C[C@H]1Cc2c(n3ncc(Cc4ccccc4)c3n(-c3ccc(-c4nn(C)c(=O)[nH]4)cc3)c2=O)CN1C(=O)c1ccc(Br)c(C(F)(F)F)c1` (stereo in doubt) [Compound 82b, rac-(11S)-5-benzyl-12-[4-bromo-3-(trifluoromethyl)benzoyl]-11-methyl-7-[4-(1-methyl-5-oxo-4H-1,2,4-triazol-3-yl)phenyl]-2,3,7,12-tetrazatricyclo[7.4.0.0^2,6]trideca-1(9),3,5-trien-8-one], the EC50 lay in the range of 50 to 500 nM.

In turn, `CCC[C@H]1Cc2c(n3ncc(Cc4ccccc4)c3n(-c3ccc4c(NC)n[nH]c4c3)c2=O)CN1C(=O)c1ccc(Br)c(C(F)(F)F)c1` (stereo in doubt) [Compound 88b, rac-(11S)-5-benzyl-12-[4-bromo-3-(trifluoromethyl)benzoyl]-7-[3-(methylamino)-1H-indazol-6-yl]-11-propyl-2,3,7,12-tetrazatricyclo[7.4.0.0^2,6]trideca-1(9),3,5-trien-8-one] yielded an EC50 below 50 nM.

Molecule `Cc1cnnn1-c1ccc(-n2c(=O)c3c(n4ncc(Cc5ccccc5)c24)CN(C(=O)c2ccc(Br)c(C(F)(F)F)c2)CC3)cc1` [Compound 34, 5-benzyl-12-[4-bromo-3-(trifluoromethyl)benzoyl]-7-[4-(5-methyltriazol-1-yl)phenyl]-2,3,7,12-tetrazatricyclo[7.4.0.0^2,6]trideca-1(9),3,5-trien-8-one] came in with an EC50 below 50 nM.

The molecule `Cc1nn[nH]c1-c1ccc(-n2c(=O)c3c(n4ncc(CC5CC5)c24)CN(C(=O)c2ccc(Br)c(C(F)(F)F)c2)[C@H](C)C3)cc1` (stereo in doubt) [Compound 75a, rac-(11R)-12-[4-bromo-3-(trifluoromethyl)benzoyl]-5-(cyclopropylmethyl)-11-methyl-7-[4-(4-methyl-1H-triazol-5-yl)phenyl]-2,3,7,12-tetrazatricyclo[7.4.0.0^2,6]trideca-1(9),3,5-trien-8-one] registered an EC50 below 50 nM.

Turning to `Cc1nn[nH]c1-c1cc(-n2c(=O)c3c(n4ncc(Cc5ccccc5)c24)CN(C(=O)c2ccc(Br)c(C(F)(F)F)c2)[C@@H](C)C3)nn1C` (stereo in doubt) [Compound 83b, rac-(11S)-5-benzyl-12-[4-bromo-3-(trifluoromethyl)benzoyl]-11-methyl-7-[1-methyl-5-(4-methyl-1H-triazol-5-yl)pyrazol-3-yl]-2,3,7,12-tetrazatricyclo[7.4.0.0^2,6]trideca-1(9),3,5-trien-8-one], the EC50 was in the range of 50 to 500 nM.

For `C[C@@H]1Cc2c(n3ncc(Cc4ccccc4)c3n(-c3ccc(-c4nc(=O)on4C)cc3)c2=O)CN1C(=O)c1ccc(Br)c(C(F)(F)F)c1` (stereo in doubt) [Compound 44a, 2-methyl-3-[4-[rac-(11R)-5-benzyl-12-[4-bromo-3-(trifluoromethyl)benzoyl]-11-methyl-8-oxo-2,3,7,12-tetrazatricyclo[7.4.0.0^2,6]trideca-1(9),3,5-trien-7-yl]phenyl]-1,2,4-oxadiazol-5-one], the concentration for a half-maximal effect (EC50) is below 50 nM.

`CC(C)Cc1cnn2c3c(c(=O)n(-c4ccc(-c5nncn5C)cc4)c12)C[C@@H](C)N(C(=O)c1ccc(Cl)c(C(F)(F)F)c1)C3` (stereo in doubt) [Compound 67a, rac-(11R)-12-[4-chloro-3-(trifluoromethyl)benzoyl]-5-isobutyl-11-methyl-7-[4-(4-methyl-1,2,4-triazol-3-yl)phenyl]-2,3,7,12-tetrazatricyclo[7.4.0.0^2,6]trideca-1(9),3,5-trien-8-one] returned a half-maximal effective concentration (EC50) below 50 nM.

With `Cc1ccn(-c2ccc(-n3c(=O)c4c(n5ncc(CC(C)C)c35)CN(C(=O)c3ccc(Br)c(C(F)(F)F)c3)[C@@H](C)C4)cc2)n1` (stereo in doubt) [Compound 100b, rac-(11S)-12-[4-bromo-3-(trifluoromethyl)benzoyl]-5-isobutyl-11-methyl-7-[4-(3-methylpyrazol-1-yl)phenyl]-2,3,7,12-tetrazatricyclo[7.4.0.0^2,6]trideca-1(9),3,5-trien-8-one], the EC50 is 500 to 5000 nM.

For `CNC(=O)c1cc(-n2c(=O)c3c(n4ncc(CC(C)C)c24)CN(C(=O)c2ccc(Br)c(C(F)(F)F)c2)[C@H](C)C3)nn1C` (stereo in doubt) [Compound 77a, N,2-dimethyl-5-[rac-(11R)-12-[4-bromo-3-(trifluoromethyl)benzoyl]-5-isobutyl-11-methyl-8-oxo-2,3,7,12-tetrazatricyclo[7.4.0.0^2,6]trideca-1(9),3,5-trien-7-yl]pyrazole-3-carboxamide], the EC50 is below 50 nM.

`CC(C)[C@H](N)C(=O)OCN(C)C(=O)c1ccc(-n2c(=O)c3c(n4ncc(CC5CC5)c24)CN(C(=O)c2ccc(Br)c(C(F)(F)F)c2)[C@@H](C)C3)cc1` [Compound 90, [[4-[(11S)-12-[4-bromo-3-(trifluoromethyl)benzoyl]-5-(cyclopropylmethyl)-11-methyl-8-oxo-2,3,7,12-tetrazatricyclo[7.4.0.0^2,6]trideca-1(9),3,5-trien-7-yl]benzoyl]-methylamino]methyl (2S)-2-amino-3-methyl-butanoate]: the EC50 was above 5000 nM.

`C[C@H]1Cc2c(n3ncc(CC4CC4)c3n(-c3ccc(-c4nc(=O)on4C)cc3)c2=O)CN1C(=O)c1ccc(Br)c(C(F)(F)F)c1` (stereo in doubt) [Compound 93b, 2-methyl-3-[4-[rac-(11S)-12-[4-bromo-3-(trifluoromethyl)benzoyl]-5-(cyclopropylmethyl)-11-methyl-8-oxo-2,3,7,12-tetrazatricyclo[7.4.0.0^2,6]trideca-1(9),3,5-trien-7-yl]phenyl]-1,2,4-oxadiazol-5-one] had a 50% effective concentration (EC50) below 50 nM.

Molecule `CNC(=O)c1ccc(-n2c(=O)c3c(n4ncc(Cc5ccccc5)c24)CN(C(=O)c2ccc(Br)c(C(F)F)c2)CC3)cc1` [Compound 3, 4-[5-benzyl-12-[4-bromo-3-(difluoromethyl)benzoyl]-8-oxo-2,3,7,12-tetrazatricyclo[7.4.0.0^2,6]trideca-1(9),3,5-trien-7-yl]-N-methyl-benzamide] registered an EC50 below 50 nM.

In turn, `CNC(=O)c1ccc(-n2c(=O)c3c(n4ncc(CC5CC(F)(F)C5)c24)CN(C(=O)c2ccc(Br)c(Cl)c2)CC3)cc1` [Compound 19, 4-[12-(4-bromo-3-chloro-benzoyl)-5-[(3,3-difluorocyclobutyl)methyl]-8-oxo-2,3,7,12-tetrazatricyclo[7.4.0.0^2,6]trideca-1(9),3,5-trien-7-yl]-N-methyl-benzamide] displayed an EC50 of 50 to 500 nM.

As to `C[C@H]1Cc2c(n3ncc(Cc4ccccc4)c3n(-c3ccc(-c4nc(=O)on4C)cc3)c2=O)CN1C(=O)c1ccc(Br)c(C(F)(F)F)c1` (stereo in doubt) [Compound 44b, 2-methyl-3-[4-[rac-(11S)-5-benzyl-12-[4-bromo-3-(trifluoromethyl)benzoyl]-11-methyl-8-oxo-2,3,7,12-tetrazatricyclo[7.4.0.0^2,6]trideca-1(9),3,5-trien-7-yl]phenyl]-1,2,4-oxadiazol-5-one], the EC50 is below 50 nM.

`Cc1ccnn1-c1ccc(-n2c(=O)c3c(n4ncc(Cc5ccccc5)c24)CN(C(=O)c2ccc(Br)c(Cl)c2)CC3)cc1` [Compound 12, 5-benzyl-12-(4-bromo-3-chloro-benzoyl)-7-[4-(5-methylpyrazol-1-yl)phenyl]-2,3,7,12-tetrazatricyclo[7.4.0.0^2,6]trideca-1(9),3,5-trien-8-one] yielded an EC50 below 50 nM.

Broadly, the EC50 is the concentration giving half of the maximal effect.
